pKi: −log10 of the molar value.
What follows are molecules tested against T1, Bcl-2 protein (Homo sapiens, UniProt P10415, DELINS35-91DVEENRTEAPEGTESE, form not given) (assay: Bcl-2 fluorescence polarization assay (FPA) binding). Conditions: 10 nM Bcl-2 protein, 1 nM fluorescein-labeled BAX peptide, room temperature, read-out: Bcl-2 FPA 11pt Ki.
T1 construct: fused on or other part: Bcl-xL (Q07817) residues 29-44 stand in place of Bcl-2's own unstructured loop 35-91; The C-terminal membrane anchor (208-239) is absent
Method: Assays for the inhibition of Bcl-2 were performed in 96-well microtiter plates. Compounds of the instant invention were diluted in DMSO to concentrations between […] and 10 pM and introduced into each well of the plate. A mixture totaling 125 µL per well of assay buffer (20 mM phosphate buffer (pH 7.4), 1 mM EDTA, 0.05% PF-68), 10 nM of Bcl-2 protein (prepared according to the procedure described in PNAS 2001, 98, 3012-3017), 1 nM fluorescein-labeled BAX peptide (prepared in-house), and the DMSO solution of the compound of the instant invention was shaken for 2 minutes and placed in a LJL Analyst (LJL Bio Systems, CA. Polarization was measured at room temperature using a continuous Fluorescein lamp (excitation 485 nm, emission 530 nm). Ki values were calculated using Microsoft Excel.

T1 sequence (P10415 with tags, fused parts or gaps with the stated changes): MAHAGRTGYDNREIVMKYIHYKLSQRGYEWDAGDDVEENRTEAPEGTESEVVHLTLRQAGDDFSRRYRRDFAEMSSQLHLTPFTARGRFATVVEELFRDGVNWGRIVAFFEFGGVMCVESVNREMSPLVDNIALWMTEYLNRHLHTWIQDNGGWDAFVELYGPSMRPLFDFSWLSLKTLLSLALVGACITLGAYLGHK

| pKi | SMILES |
| --- | --- |
| > 7.70 | O=C(NS(=O)(=O)c1ccc(NCC2CCOCC2)c([N+](=O)[O-])c1)c1ccc(N2CCN(Cc3ccccc3C3=CC4CC3C3CCCC43)CC2)cc1 (centres unmarked) [Example 23, 4-(4-{2-[2,3,3a,4,7,7a-hexahydro-1H-4,7-methanoinden-5-yl]benzyl}piperazin-1-yl)-N-({3-nitro-4-[(tetrahydro-2H-pyran-4-ylmethyl)amino]phenyl}sulfonyl)benzamide] |
| 5.64 | O=C(NS(=O)(=O)c1ccc(NCC2CCOCC2)c([N+](=O)[O-])c1)c1ccc(N2CCN(Cc3ccccc3-c3cn(C45CC6CC(CC(C6)C4)C5)nc3C(=O)N(c3ccccc3)c3ccccc3)CC2)cc1 [Example 24, 1-[adamantan-1-yl]-4-{2-[(4-{4-[({3-nitro-4-[(tetrahydro-2H-pyran-4-ylmethyl)amino]phenyl}sulfonyl)carbamoyl]phenyl}piperazin-1-yl)methyl]phenyl}-N,N-diphenyl-1H-pyrazole-3-carboxamide] |
| 6.01 | Cc1cc(-c2ccccc2CN2CCN(c3ccc(C(=O)NS(=O)(=O)c4ccc(NCC5CCOCC5)c([N+](=O)[O-])c4)cc3)CC2)c2nc(C34CC5CC(CC(C5)C3)C4)cn2c1 [Example 25, 4-(4-{2-[2-(adamantan-1-yl)-6-methylimidazo[1,2-a]pyridin-8-yl]benzyl}piperazin-1-yl)-N-({3-nitro-4-[(tetrahydro-2H-pyran-4-ylmethyl)amino]phenyl}sulfonyl)benzamide] |
| 7.57 | CC1(C)[C@H]2CC=C(c3ccccc3CN3CCN(c4ccc(C(=O)NS(=O)(=O)c5ccc(NCC6CCOCC6)c([N+](=O)[O-])c5)cc4)CC3)[C@@H]1C2 [Example 27, 4-(4-{2-[(1R,5S)-6,6-dimethylbicyclo[3.1.1]hept-2-en-2-yl]benzyl}piperazin-1-yl)-N-({3-nitro-4-[(tetrahydro-2H-pyran-4-ylmethyl)amino]phenyl}sulfonyl)benzamide] |
| 7.53 | CC1C2CC(C=C2c2ccccc2CN2CCN(c3ccc(C(=O)NS(=O)(=O)c4ccc(NCC5CCOCC5)c([N+](=O)[O-])c4)cc3)CC2)C1(C)C (centres unmarked) [Example 28, N-({3-nitro-4-[(tetrahydro-2H-pyran-4-ylmethyl)amino]phenyl}sulfonyl)-4-(4-{2-[5,5,6-trimethylbicyclo[2.2.1]hept-2-en-2-yl]benzyl}piperazin-1-yl)benzamide] |
| 6.45 | O=C(NS(=O)(=O)c1ccc(NCC2CCOCC2)c([N+](=O)[O-])c1)c1ccc(N2CCN(Cc3ccccc3-c3ccc(C(=O)NC4CCCCCCC4)o3)CC2)cc1 [Example 29, N-cyclooctyl-5-{2-[(4-{4-[({3-nitro-4-[(tetrahydro-2H-pyran-4-ylmethyl)amino]phenyl}sulfonyl)carbamoyl]phenyl}piperazin-1-yl)methyl]phenyl}-2-furamide] |
| 6.53 | CC1(C)C2C=C(c3ccccc3CN3CCN(c4ccc(C(=O)NS(=O)(=O)c5ccc(NCC6CCOCC6)c([N+](=O)[O-])c5)cc4)CC3)C1(C(=O)NCc1ccccc1)CC2 (centres unmarked) [Example 30, N-benzyl-7,7-dimethyl-2-{2-[(4-{4-[({3-nitro-4-[(tetrahydro-2H-pyran-4-ylmethyl)amino]phenyl}sulfonyl)carbamoyl]phenyl}piperazin-1-yl)methyl]phenyl}bicyclo[2.2.1]hept-2-ene-1-carboxamide] |
| 7.50 | CN1[C@@H]2CC[C@H]1CC(Nc1ccccc1CN1CCN(c3ccc(C(=O)NS(=O)(=O)c4ccc(NCC5CCOCC5)c([N+](=O)[O-])c4)cc3)CC1)C2 (stereo partly drawn) [Example 31, 4-[4-(2-{[(1R,5S)-8-methyl-8-azabicyclo[3.2.1]oct-3-yl]amino}benzyl)piperazin-1-yl]-N-({3-nitro-4-[(tetrahydro-2H-pyran-4-ylmethyl)amino]phenyl}sulfonyl)benzamide] |
| 7.04 | C[C@@H]1[C@@H](Nc2ccccc2CN2CCN(c3ccc(C(=O)NS(=O)(=O)c4ccc(NCC5CCOCC5)c([N+](=O)[O-])c4)cc3)CC2)C[C@@H]2C[C@H]1C2(C)C [Example 32, N-({3-nitro-4-[(tetrahydro-2H-pyran-4-ylmethyl)amino]phenyl}sulfonyl)-4-[4-(2-{[(1R,2S,3S,5S)-2,6,6-trimethylbicyclo[3.1.1]hept-3-yl]amino}benzyl)piperazin-1-yl]benzamide] |
| > 7.70 | O=C(NS(=O)(=O)c1ccc(NCC2CCOCC2)c([N+](=O)[O-])c1)c1ccc(N2CCN(Cc3ccccc3N3CC4CCC(CC4)C3)CC2)cc1 [Example 33, 4-(4-{2-[3-azabicyclo[3.2.2]non-3-yl]benzyl}piperazin-1-yl)-N-({3-nitro-4-[(tetrahydro-2H-pyran-4-ylmethyl)amino]phenyl}sulfonyl)benzamide] |
| 7.32 | O=C(NS(=O)(=O)c1ccc(NCC2CCOCC2)c([N+](=O)[O-])c1)c1ccc(N2CCN(Cc3ccccc3C3=CC4CC5CC(C4)CC3C5)CC2)cc1 [Example 34, N-({3-nitro-4-[(tetrahydro-2H-pyran-4-ylmethyl)amino]phenyl}sulfonyl)-4-(4-{2-[tricyclo[4.3.1.1^3,8]undec-4-en-4-yl]benzyl}piperazin-1-yl)benzamide] |
| 7.66 | CC1(C)C2C=C(c3ccccc3CN3CCN(c4ccc(C(=O)NS(=O)(=O)c5ccc(NCC6CCOCC6)c([N+](=O)[O-])c5)cc4)CC3)C1(C(=O)Nc1ccccc1)CC2 (centres unmarked) [Example 35, 7,7-dimethyl-2-{2-[(4-{4-[({3-nitro-4-[(tetrahydro-2H-pyran-4-ylmethyl)amino]phenyl}sulfonyl)carbamoyl]phenyl}piperazin-1-yl)methyl]phenyl}-N-phenylbicyclo[2.2.1]hept-2-ene-1-carboxamide] |
| 6.92 | C[C@@H]1[C@@H](NC(=O)C23CCC(C=C2c2ccccc2CN2CCN(c4ccc(C(=O)NS(=O)(=O)c5ccc(NCC6CCOCC6)c([N+](=O)[O-])c5)cc4)CC2)C3(C)C)C[C@H]2C[C@@H]1C2(C)C [Example 36, 7,7-dimethyl-2-{2-[(4-{4-[({3-nitro-4-[(tetrahydro-2H-pyran-4-ylmethyl)amino]phenyl}sulfonyl)carbamoyl]phenyl}piperazin-1-yl)methyl]phenyl}-N-[(1S,2S,3S,5R)-2,6,6-trimethylbicyclo[3.1.1]hept-3-yl]bicyclo[2.2.1]hept-2-ene-1-carboxamide] |
| 6.78 | CC1(C)C2C=C(c3ccccc3CN3CCN(c4ccc(C(=O)NS(=O)(=O)c5ccc(NCC6CCOCC6)c([N+](=O)[O-])c5)cc4)CC3)C1(C(=O)NCC13CC4CC(CC(C4)C1)C3)CC2 (centres unmarked) [Example 37, N-(adamantan-1-ylmethyl)-7,7-dimethyl-2-{2-[(4-{4-[({3-nitro-4-[(tetrahydro-2H-pyran-4-ylmethyl)amino]phenyl}sulfonyl)carbamoyl]phenyl}piperazin-1-yl)methyl]phenyl}bicyclo[2.2.1]hept-2-ene-1-carboxamide] |
| 6.83 | CC1(C)C2C=C(c3ccccc3CN3CCN(c4ccc(C(=O)NS(=O)(=O)c5ccc(NCC6CCOCC6)c([N+](=O)[O-])c5)cc4)CC3)C1(C(=O)NC1CC1)CC2 (centres unmarked) [Example 38, N-cyclopropyl-7,7-dimethyl-2-{2-[(4-{4-[({3-nitro-4-[(tetrahydro-2H-pyran-4-ylmethyl)amino]phenyl}sulfonyl)carbamoyl]phenyl}piperazin-1-yl)methyl]phenyl}bicyclo[2.2.1]hept-2-ene-1-carboxamide] |
| 5.54 | CC1(C)C2C=C(c3ccccc3CN3CCN(c4ccc(C(=O)NS(=O)(=O)c5ccc(NCC6CCOCC6)c([N+](=O)[O-])c5)cc4)CC3)C1(C(=O)O)CC2 (centres unmarked) [Example 39, 7,7-dimethyl-2-{2-[(4-{4-[({3-nitro-4-[(tetrahydro-2H-pyran-4-ylmethyl)amino]phenyl}sulfonyl)carbamoyl]phenyl}piperazin-1-yl)methyl]phenyl}bicyclo[2.2.1]hept-2-ene-1-carboxylic Acid] |
| 7.26 | O=C(NS(=O)(=O)c1ccc(NCC2CCOCC2)c([N+](=O)[O-])c1)c1ccc(N2CCN(Cc3ccccc3-c3ccc(CN4C5CCCC4CC5)s3)CC2)cc1 [Example 40, 4-[4-(2-{5-[8-azabicyclo[3.2.1]oct-8-ylmethyl]-2-thienyl}benzyl)piperazin-1-yl]-N-({3-nitro-4-[(tetrahydro-2H-pyran-4-ylmethyl)amino]phenyl}sulfonyl)benzamide] |
| 5.29 | O=C(NS(=O)(=O)c1ccc(NC2CCOCC2)c([N+](=O)[O-])c1)c1ccc(N2CCN(C(=O)C34CC5CC(CC(C5)C3)C4)CC2)cc1 [Example 41, 4-{4-[adamantan-1-ylcarbonyl]piperazin-1-yl}-N-{[3-nitro-4-(tetrahydro-2H-pyran-4-ylamino)phenyl]sulfonyl}benzamide] |
| 5.61 | O=C(NS(=O)(=O)c1ccc(NC2CCOCC2)c([N+](=O)[O-])c1)c1ccc(N2CCN(C(=O)C3C4CC5CC(C4)CC3C5)CC2)cc1 (centres unmarked) [Example 42, 4-{4-[adamantan-2-ylcarbonyl]piperazin-1-yl}-N-{[3-nitro-4-(tetrahydro-2H-pyran-4-ylamino)phenyl]sulfonyl}benzamide] |
| < 5.20 | O=C(NS(=O)(=O)c1ccc(NC2CCOCC2)c([N+](=O)[O-])c1)c1ccc(N2CC3CC2CN3C(=O)C23CC4CC(CC(C4)C2)C3)cc1 (centres unmarked) [Example 43, 4-{5-[adamantan-1-ylcarbonyl]-2,5-diazabicyclo[2.2.1]hept-2-yl}-N-{[3-nitro-4-(tetrahydro-2H-pyran-4-ylamino)phenyl]sulfonyl}benzamide] |

— patent US8188077B2, “Apoptosis-inducing agents for the treatment of cancer and immune and autoimmune diseases” (Abbott Laboratories, priority 2010, dated 2012)
